In ChEMBL document CHEMBL1122144, “(+/-)-4-Aryl-4,5-dihydro-3H-1,3-benzodiazepines. 1. Synthesis and evaluation of (+/-)-4,5-dihydro-2,3-dimethyl-4-phenyl-3H-1,3-benzodiazepine and analogues as potential antidepressant agents” (J Med Chem, 1982):

Assays:
Mus musculus [1] = assay: Compound was tested in vivo for antagonism of oxotremorine induced -tremors in mouse.; format: functional
Mus musculus [2] = assay: Compound was tested in vivo for antagonism of oxotremorine induced salivation in mouse.; format: functional
Mus musculus [3] = assay: In vivo inhibition of potentiation of yohimbine -induced toxicity in mouse; format: functional
Mus musculus [4] = assay: In vivo antidepressant activity assessed by prevention of tetrabenazine-induced ptosis in mice following i.p. administration.; format: functional
Rattus norvegicus [5] = assay: In vivo effective dose for intraperitoneal administration required for the muricidal activity was determined in rat; format: functional; details: ip
Rattus norvegicus [6] = organism: Rattus norvegicus; assay: In vitro inhibition against neuronal uptake of dopamine in rat striatum; format: functional
Rattus norvegicus [7] = organism: Rattus norvegicus; assay: In vitro inhibition against neuronal uptake of norepinephrine in rat hypothalamus; format: functional
Rattus norvegicus [8] = organism: Rattus norvegicus; assay: In vitro inhibition against neuronal uptake of norepinephrine in rat whole brain; format: functional
Rattus norvegicus [9] = organism: Rattus norvegicus; assay: In vitro inhibition against neuronal uptake of serotonin in whole brain.; format: functional
Rattus norvegicus [10] = assay: Compound was screened in vivo for antidepressant activity by 5 HTP potentiation method in rat; format: functional
Rattus norvegicus [11] = assay: Compound was screened in vivo for antidepressant activity by tryptamine seizure potentiation method in rat.; format: functional
Rattus norvegicus [12] = assay: Compound was tested for beta -adrenergic sensitivity when administered to rats at 10 mg/kg, perorally, twice daily for 10 days.; format: functional; details: 240 h, route oral
Mus musculus [13] = assay: Inhibition of pentylenetetrazole lethality in mice (po); format: functional
Mus musculus [14] = assay: Prevention of tetrabenazine-induced ptosis in mice (ip); format: functional
Mus musculus [15] = assay: Prevention of amphetamine aggregation toxicity in mice (po); format: functional
Rattus norvegicus [16] = assay: Potentiation of 5-HT induced behavioral syndrome in pargyline-pretreated rats (ip); format: functional
Rattus norvegicus [17] = assay: In vivo for the inhibition of muricidal activity. The effective dose (intraperitoneally) required for the activity was determined in rat; format: functional; details: ip
Rattus norvegicus [18] = assay: Compound was tested in vitro for beta -adrenergic sensitivity and administered to rats at 10 mg/kg, perorally, twice daily for 10 days.; format: functional; details: 240 h, route oral
Mus musculus [19] = organism: Mus musculus; assay: Compound was tested for physostigmine lethality in mouse.; format: functional
Mus musculus [20] = assay: Compound was tested in vivo for potential antidepressant activity which was assessed by its prevention of tetrabenazine-induced ptosis in mice; format: functional
Mus musculus [21] = assay: In vivo for the inhibition of potentiation of yohimbine -induced toxicity in mouse; format: functional
[22] = Compound was tested in vitro for its ability to displace [3H]quinuclidine benzylate (QNB) from Muscarinic acetylcholine receptor on rat whole brain membranes.; format: cell membranes
Rattus norvegicus [23] = organism: Rattus norvegicus; assay: In vitro inhibition against neuronal uptake of dopamine in striatum.; format: functional
Rattus norvegicus [24] = organism: Rattus norvegicus; assay: In vitro inhibition against neuronal uptake of norepinephrine in whole brain; format: functional
Rattus norvegicus [25] = assay: Compound was screened in vivo for antidepressant activity by 5 HTP potentiation method in rat.; format: functional
[26] = Mus musculus, ip, read-out: ED50

Structure (SMILES): CC1=Nc2ccccc2CC(c2ccccc2)N1C.Cl (stereo not given) [DAZEPINIL HYDROCHLORIDE]
- ED50 (Mus musculus [1]): > 25 mg/kg
- ED50 (Mus musculus [2]): > 25 mg/kg
- ED50 (Mus musculus [3]): 5.9 mg/kg
- ED50 (Mus musculus [4]): 2.1 mg/kg
- ED50 (Mus musculus [4]; [26]): 1.5 mg/kg
- ED50 (Rattus norvegicus [5]): > 20 mg/kg
- IC50 (Rattus norvegicus [6]): 5.3 µM
- IC50 (Rattus norvegicus [7]): 0.9 µM
- IC50 (Rattus norvegicus [8]): 1.7 µM
- IC50 (Rattus norvegicus [9]): 8.4 µM
- ED50 (Rattus norvegicus [10]): > 10 mg/kg
- ED50 (Rattus norvegicus [11]): > 25 mg/kg
- inhibition in vivo at 10 mg/kg (Rattus norvegicus [12]): -44%

Structure (SMILES): C1=NC(c2ccccc2)Cc2ccccc2N1 (stereo not given)
- ED50 (Mus musculus [4]; [26]): ~20 mg/kg

Structure (SMILES): CN1C=Nc2ccccc2CC1c1ccccc1 (stereo not given)
- ED50 (Mus musculus [4]; [26]): 9.7 mg/kg

Structure (SMILES): CN1C(c2ccccc2)=Nc2ccccc2CC1c1ccccc1 (stereo not given)
- ED50 (Mus musculus [4]; [26]): > 20 mg/kg

Structure (SMILES): CC1=Nc2ccccc2CC(c2ccccc2)N1Cc1ccccc1 (stereo not given)
- ED50 (Mus musculus [4]; [26]): > 20 mg/kg

Structure (SMILES): CC1=Nc2ccccc2CC(c2ccccc2)N1CC1CCCCC1 (stereo not given)
- ED50 (Mus musculus [4]; [26]): ~20 mg/kg

Structure (SMILES): CC1=NC(c2ccccc2)Cc2ccccc2N1 (stereo not given)
- ED50 (Mus musculus [4]; [26]): > 20 mg/kg

Structure (SMILES): CCC1=Nc2ccccc2CC(c2ccccc2)N1C (stereo not given)
- ED50 (Mus musculus [4]; [26]): 0.6 mg/kg

Structure (SMILES): CCCN1C(C)=Nc2ccccc2CC1c1ccccc1 (stereo not given)
- ED50 (Mus musculus [4]; [26]): > 5 mg/kg

Structure (SMILES): CC(=O)C(Cc1ccccc1NCN1C(=O)CCC1=O)c1ccccc1 (stereo not given)
- ED50 (Mus musculus [13]): > 40 mg/kg
- ED50 (Mus musculus [14]): > 20 mg/kg
- ED50 (Mus musculus [15]): > 20 mg/kg
- ED50 (Rattus norvegicus [16]): > 10 mg/kg

Structure (SMILES): CCCC1=Nc2ccccc2CC(c2ccccc2)N1C (stereo not given)
- ED50 (Mus musculus [4]; [26]): > 20 mg/kg

Structure (SMILES): CCC1=NC(c2ccccc2)Cc2ccccc2N1 (stereo not given)
- ED50 (Mus musculus [4]; [26]): > 5 mg/kg

Structure (SMILES): CC1=NC(c2ccccc2)Cc2ccccc2N1c1ccccc1 (stereo not given)
- ED50 (Mus musculus [4]; [26]): > 20 mg/kg

Structure (SMILES): CNC(Cc1ccccc1[N+](=O)[O-])c1ccccc1 (stereo not given)
- ED50 (Mus musculus [13]): > 40 mg/kg
- ED50 (Mus musculus [15]): > 20 mg/kg
- ED50 (Rattus norvegicus [16]): > 10 mg/kg

Structure (SMILES): CCN1C(C)=Nc2ccccc2CC1c1ccccc1 (stereo not given)
- ED50 (Mus musculus [4]; [26]): ~20 mg/kg

Structure (SMILES): CN1C(C2CC2)=Nc2ccccc2CC1c1ccccc1 (stereo not given)
- ED50 (Mus musculus [4]; [26]): > 20 mg/kg

Structure (SMILES): CC1=NC(c2ccccc2)Cc2ccccc2N1C (stereo not given)
- ED50 (Mus musculus [4]; [26]): > 20 mg/kg

Structure (SMILES): c1ccc(C2Cc3ccccc3NC(C3CC3)=N2)cc1 (stereo not given)
- ED50 (Mus musculus [4]; [26]): > 20 mg/kg

Structure (SMILES): c1ccc(C2=NC(c3ccccc3)Cc3ccccc3N2)cc1 (stereo not given)
- ED50 (Mus musculus [4]; [26]): > 20 mg/kg

Structure (SMILES): CNCCCN1c2ccccc2CCc2ccccc21 [DESIPRAMINE]
- ED50 (Rattus norvegicus [17]): 8.2 mg/kg
- ED50 (Rattus norvegicus [11]): > 25 mg/kg
- inhibition in vivo at 10 mg/kg (Rattus norvegicus [18]): -50%

Structure (SMILES): CN(C)CCC=C1c2ccccc2CCc2ccccc21 [AMITRIPTYLINE]
- ED50 (Mus musculus [19]): 9.6 mg/kg
- ED50 (Mus musculus [1]): 1.3 mg/kg
- ED50 (Mus musculus [2]): > 5 mg/kg
- ED50 (Mus musculus [20]): 1.9 mg/kg
- ED50 (Mus musculus [21]): 8 mg/kg
- ED50 (Mus musculus [4]; [26]): 1.5 mg/kg
- IC50 [22]: 3 µM
- IC50 (Rattus norvegicus [23]): 14 µM
- IC50 (Rattus norvegicus [24]): 4.7 µM
- IC50 (Rattus norvegicus [9]): 2 µM
- ED50 (Rattus norvegicus [25]): 7.1 mg/kg
